The values that follow are results of earlier work, collected in patent US11958977B2, “Fluorescently labeled polysaccharide, preparation method therefor, and use thereof” (SUZHOU BAIYUAN GENT CO., LTD., priority 2018, dated 2024).

Where a name gives a salt, the structure may show the parent alone.

For this data set the following is noted: Solvent: 0.1M H2SO4.

`C=C[C@H]1C[N@@]2CC[C@H]1C[C@H]2[C@H](O)c1ccnc2ccc(OC)cc12` [quinine sulfate]: the “Quantum yield of the reference compound” value is recorded as 0.56.
